According to patent US8415333B2, “Bronchodilating diazaheteroaryls” (Respiratorious AB, priority 2009, dated 2013):

How the values were obtained:
human bronchiols [1] = test: Test Procedure B: remaining contraction of LTD4-contracted human bronchus preparation under sequential test item concentrations; format: cell-based; conditions: for % RC 0.1 μM: test item 0.1 μM for 1 h in 10 nM LTD4 PSS; for % RC 1 μM: test item 1 μM for 1 h in 10 nM LTD4 PSS; for % RC 1 μM / % RC 10 μM: sequential; for % RC 10 μM: test item 10 μM for 1 h in 10 nM LTD4 PSS
Description: (§1) The usefulness of the compounds, as defined in the embodiments herein, in treating, revoking, mitigating, alleviating and/or preventing a condition of the respiratory apparatus characterized by bronchoconstriction, were evaluated in a complex and relevant in vitro model, which is described in US 2006-0040254 A1 and Skogvall, S., Berglund, M., Dalence-Guzmán, M. F., Svensson, K., Jönsson, P., Persson, C. G. A and Sterner, O., Pulmonary Pharmacology and Therapeutics, vol 20:3, 2007, p. 273-280. All references disclosed herein are hereby incorporated in their entirety by reference.
(§2) Lung tissue was obtained from patients undergoing lobectomia or pulmectomia due to lung carcinoma. The tissue was placed in a dissection chamber continuously perfused with 10 ml min^−1 of a physiological saline solution (PSS) at room temperature. An airway was identified in the cut part of the lobe, and a bronchus of 10-20 mm length, and 1-2 mm diameter was obtained. The bronchus was cut into rings of a width of about 2-3 mm. Each bronchial ring was cleaved to obtain an about rectangular oblong preparation free from cartilage, one end of which was tied to a small steel hook connected to a force transducer, while the other end of the preparation was attached to a fixed hook. This is followed by a period of adjustment, as described below. The preparation was mounted in an atmosphere containing 12% of oxygen and 6% of CO2.
(§3) The experimental assay system consists of 8 chambers, each with a volume of 6 ml, and is continuously perfused with solutions at a rate of 3 ml/min at 37° C. The chambers are equipped with force transducers (model AME 801, SensoNor A/S, Horton, Norway) allowing the individual registration of parallel preparations. The force transducers are connected to micrometer screws for stretching of tissue preparations to the desired tone. Recordings from the experiments are sampled and analysed using software from ADInstrumets. The substances to be tested and contractile agent are injected upstream of the preparation(s).
(§4) Materials. PPS (physiological saline solution, in mM): NaCl, 117; KCl, 4.87; MgSO4, 0.60; NaHCO3, 25.0; CaCl2, 1.60; glucose, 5.23. The solution is saturated with a mixture of 94% oxygen and 6% carbon dioxide, giving a pH of 7.40±0.05 in the experimental chamber. All substances are prepared as stock solution dissolved in the vehicles ethanol or DMSO. Leukotriene D4 (LTD4; Cayman Ltd.): 10 μl of a 100 μM ethanol stock solution. Substance to be tested: 10-100 μl of a 0.01-0.1 M DMSO stock solution. Solution for establishing the passive tension level: calcium-free PSS+2 mM EGTA. To exclude effects by the test substance vehicle, DMSO was added during the entire experiment except during the presence of test substance.
After mounting as described above the preparation is allowed to adjust with a low passive tone in the experimental chamber. The composition of the gas is changed to 94% (v/v) of oxygen. After a short adjustment period, PSS with 10 nM LTD4 is added to the experimental chamber upstream of the preparation (A). The preparation is stretched repeatedly (B) until it exerts a contraction force of around 150 mg. The preparation is kept at level contraction, plateau, with 10 nM LTD4 for 30 min (C). The preparation is then treated with 0.1 μM of the test item in 10 nM LTD4 PSS for 1 h. This is followed by the sequential treatment with 1 μM of the test item in 10 nM LTD4 PSS for 1 h (E) and finally 10 uM of the test item in 10 nM LTD4 PSS for 1 h (F). The experiment is concluded by adding calcium-free solution with addition of 2 mM EGTA for 20 min to establish the passive tension level base line (G).
The result, bronchorelaxing efficiency, is calculated as follows: by comparing and obtaining the ratio between the tensioned states (relative to base line) at the different concentrations, the bronchorelaxing efficiency of the test item is determined. The results are expressed as % remaining contraction (RC). […]

human bronchiols [2] = test: Test Procedure A: remaining contraction of human bronchus preparation on LTD4 challenge after 1 h pre-treatment with test item; format: cell-based; conditions: 10 nM Leukotriene D4; for % RC 1 μM: test item 1 μM pre-treatment; for % RC 10 μm: test item 10 μm, 1 h pre-treatment
Description: as §1, §2, §3, §4
After mounting as described above the preparation is allowed to adjust with a low passive tone in the experimental chamber. The composition of the gas is changed to 94% (v/v) of oxygen. After a short adjustment period, PSS with 10 nM LTD4 is added to the experimental chamber upstream of the preparation (A). The preparation is stretched repeatedly (B) until it exerts a contraction force of around 150 mg. When the contraction has levelled off, LTD4-free solution is administered for 1 hour (C), resulting in a relaxation. A second injection of 10 nM LTD4 (D) makes the preparation return to the tensioned state. At the peak tension leukotriene-free solution is again administered (E). After a third injection of 10 nM LTD4 (F) the preparation returns to the tensioned state. […] After 1 h exposure to the test item, 10 nM LTD4 is added, resulting in a contraction (H). If the test item is a bronkorelaxant, a substantially weaker contraction is now observed (H) in comparison with the control LTD4 contraction (F). To obtain a measure of the test substance's bronchorelaxing effect the test and control forces registered in the experiment are compared. […]

Row | SMILES | % RC 0.1 μM (human bronchiols [1]) [%] | % RC 1 μM (human bronchiols [1]) [%] | % RC 10 μM (human bronchiols [1]) [%] | % RC 1 μM (human bronchiols [2]) [%] | % RC 10 μm (human bronchiols [2]) [%]
1 | Cc1nc2ncccc2cc1C(=O)NCc1csc(-c2ccccc2)n1 [Example 4, 2-Methyl-N-((2-phenylthiazol-4-yl)methyl)-1,8-naphthyridine-3-carboxamide] | 85 | 39 | 4 |  | 
2 | Cc1nc2ncccc2cc1C(=O)NCc1ccc(-c2ccccc2)cc1 [Example 19, N-(Biphenyl-4-ylmethyl)-2-methyl-1,8-naphthyridine-3-carboxamide] |  |  |  | 41 | 17
3 | Cc1ccc2cc(C(=O)NCc3ccc(C(C)(C)C)cc3)c(C)nc2n1 [Example 109, N-(4-tert-butylbenzyl)-2,7-dimethyl-1,8-naphthyridine-3-carboxamide] | 73 | 25 | 1 |  | 
4 | Cc1nc2ncccc2cc1C(=O)NCc1ccc(C(F)(F)F)cc1 [Example 2, 2-Methyl-N-(4-(trifluoromethyl)benzyl)-1,8-naphthyridine-3-carboxamide] |  |  |  | 77 | 23
5 | Cc1nc2ncccc2cc1C(=O)NCc1ccc(Cl)c(C(F)(F)F)c1 [Example 17, N-(4-Chloro-3-(trifluoromethyl)benzyl)-2-methyl-1,8-naphthyridine-3-carboxamide] |  |  |  | 67 | 8
6 | Cc1nc2ncccc2cc1C(=O)NCc1ccc(N2CCN(C)CC2)c(C(F)(F)F)c1 [Example 62, 2-methyl-N-(4-(4-methylpiperazin-1-yl)-3-(trifluoromethyl)benzyl)-1,8-naphthyridine-3-carboxamide] | 92 | 63 | 17 |  | 
7 | Cc1nc2ncccc2cc1C(=O)NCc1cccc(C(F)(F)F)c1 [Example 14, 2-Methyl-N-(3-(trifluoromethyl)benzyl)-1,8-naphthyridine-3-carboxamide] |  |  |  | 76 | 15
8 | Cc1nc2ncccc2cc1C(=O)OCc1csc(-c2ccccc2)n1 [Example 101, (2-Phenylthiazol-4-yl)methyl 2-methyl-1,8-naphthyridine-3-carboxylate] | 72 | 63 | 27 |  | 
